In patent publication US20240018136A1, “CDK Inhibitors And Their Use As Pharmaceuticals” (Prelude Therapeutics, Incorporated, priority 2022, published 2024):

Experiments:
OVCAR3 p-RB = assay: pRB ICW assay in OVCAR3 cells; assay type: cell-based; conditions: Homo sapiens, OVCAR-3, incubated with compound for 2 hours
How it was run: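 OVCAR3 cells were treated 2 h at 37 °C with a 9-point half-log compound series, in duplicate, with 10 μM reference compound as maximum inhibition. Cells were then fixed, permeabilized and stained with anti-phospho-RB plus DRAQ5. In-cell western intensities were read at 700/800 nm on Odyssey CLx.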

CDK4/Cyclin D1 = target: T1, CDK4/Cyclin D1 (Homo sapiens, UniProt P11802); assay: CDK4/CyclinD1 enzymatic activity assay (TR-FRET); assay type: biochemical; conditions: ATP 2 mM final, read-out: CDK4_D1 IC50
T1 construct: purchased ProQinase; host or cells: insect cell
How it was run: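 Insect-cell-expressed CDK4/Cyclin D1 (1 nM) phosphorylated ULight-4E-BP1 peptide (100 nM) at 2 mM ATP in HEPES pH 7.4 buffer after 20 min compound preincubation. Reaction started with 10 mM MgCl2, ran 45 min at 37 °C, then EDTA quench and Eu-anti-phospho-4E-BP1 TR-FRET detection. IC50 from 9-point 3-fold dilutions, 4-parameter fit.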

CDK2/Cyclin E2 = CDK2/Cyclin E2 (Homo sapiens, UniProt P24941); assay: CDK2/CyclinE2 enzymatic activity assay (TR-FRET); assay type: biochemical; conditions: ATP 1 mM final, read-out: CDK2_E1 IC50
How it was run: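 Insect-cell-expressed CDK2/Cyclin E2 (1 nM), ULight-4E-BP1 (50 nM) and ATP (1 mM) in HEPES pH 7.4 buffer were preincubated 20 min at RT with compound (9-dose, 3-fold), started with 10 mM MgCl2 and run 45 min at 37 °C. EDTA/Eu-anti-P-4E-BP1 stop, 60 min TR-FRET detection; IC50 from 4-parameter Hill fit.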

T1 sequence (P11802 whole entry): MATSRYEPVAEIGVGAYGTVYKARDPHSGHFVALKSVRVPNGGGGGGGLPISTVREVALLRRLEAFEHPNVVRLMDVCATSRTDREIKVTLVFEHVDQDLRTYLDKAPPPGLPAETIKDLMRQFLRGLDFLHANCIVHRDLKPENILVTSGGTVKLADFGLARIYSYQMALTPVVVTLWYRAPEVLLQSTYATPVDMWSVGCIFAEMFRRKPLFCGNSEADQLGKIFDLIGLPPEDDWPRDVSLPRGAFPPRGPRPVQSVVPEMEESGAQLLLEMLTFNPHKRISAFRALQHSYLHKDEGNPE
T1 sequence (P24385 whole entry partner): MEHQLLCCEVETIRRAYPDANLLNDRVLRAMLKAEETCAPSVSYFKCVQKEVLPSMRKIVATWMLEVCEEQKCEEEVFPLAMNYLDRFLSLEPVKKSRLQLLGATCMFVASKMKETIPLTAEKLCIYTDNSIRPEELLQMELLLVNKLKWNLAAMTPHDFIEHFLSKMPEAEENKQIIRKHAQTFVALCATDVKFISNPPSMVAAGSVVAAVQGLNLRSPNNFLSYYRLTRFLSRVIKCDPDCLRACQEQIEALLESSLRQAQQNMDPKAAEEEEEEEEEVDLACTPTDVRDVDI

Row | SMILES | IC50 (OVCAR3 p-RB) | IC50 (CDK4/Cyclin D1) | IC50 (CDK2/Cyclin E2)
1 | Cn1cnc(S(=O)(=O)N2CCC(Nc3ncc(C(F)(F)F)c(-c4cnc(C(O)C(F)(F)F)s4)n3)CC2)c1 (stereo not drawn) [Example 90, 2,2,2-trifluoro-1-(5-(2-((1-((1-methyl-1H-imidazol-4-yl)sulfonyl)piperidin-4-yl)amino)-5-(trifluoromethyl)pyrimidin-4-yl)thiazol-2-yl)ethan-1-ol] | ≤ 100 nM | ≤ 100 nM | ≤ 100 nM
2 | Cc1ncc(-c2nc(NC3CCN(S(=O)(=O)c4ccn(C)n4)CC3)ncc2C(F)(F)F)s1 [Example 59, N-[1-(1-Methylpyrazol-3-yl)sulfonylpiperidin-4-yl]-4-(2-methyl-1,3-thiazol-5-yl)-5-(trifluoromethyl)pyrimidin-2-amine] | 100 to 1000 nM | ≤ 100 nM | ≤ 100 nM
3 | CC(O)c1ncc(-c2nc(N[C@H]3CCN(S(=O)(=O)c4cnn(C)c4)C[C@@H]3F)ncc2C(F)(F)F)s1 (stereo partly drawn) [Example 100, 1-(5-(2-(((3S,4S)-3-fluoro-1-((1-methyl-1H-pyrazol-4-yl)sulfonyl)piperidin-4-yl)amino)-5-(trifluoromethyl)pyrimidin-4-yl)thiazol-2-yl)ethan-1-ol] | > 1000 nM | 100 to 1000 nM | ≤ 100 nM
4 | CC(O)c1ncc(-c2nc(NC3CCN(S(=O)(=O)c4cnn(CC(N)=O)c4)CC3)ncc2C(F)(F)F)s1 (stereo not drawn) [Example 87, 2-(4-((4-((4-(2-(1-hydroxyethyl)thiazol-5-yl)-5-(trifluoromethyl)pyrimidin-2-yl)amino)piperidin-1-yl)sulfonyl)-1H-pyrazol-1-yl)acetamide] | 100 to 1000 nM | ≤ 100 nM | ≤ 100 nM
5 | CNc1ncc(-c2nc(NC3CCN(S(C)(=O)=O)CC3)ncc2C(F)(F)F)s1 [Example 28, N-methyl-5-[2-[(1-methylsulfonylpiperidin-4-yl)amino]-5-(trifluoromethyl)pyrimidin-4-yl]-1,3-thiazol-2-amine] | ≤ 100 nM | ≤ 100 nM | ≤ 100 nM
6 | C[C@@]1(O)CCC[C@H]1Nc1ncc(-c2nc(NC3CCN(S(C)(=O)=O)CC3)ncc2C(F)(F)F)s1 [Example 37, (1R,2R)-1-Methyl-2-[[5-[2-[(1-methylsulfonylpiperidin-4-yl)amino]-5-(trifluoromethyl)pyrimidin-4-yl]-1,3-thiazol-2-yl]amino]cyclopentan-1-ol] | 100 to 1000 nM | ≤ 100 nM | ≤ 100 nM
7 | Cn1cc(S(=O)(=O)N2CCC(Nc3ncc(C(F)(F)F)c(-c4cnc(C5(O)CCCC5)s4)n3)CC2)cn1 [Example 95, 1-(5-(2-((1-((1-methyl-1H-pyrazol-4-yl)sulfonyl)piperidin-4-yl)amino)-5-(trifluoromethyl)pyrimidin-4-yl)thiazol-2-yl)cyclopentan-1-ol] | ≤ 100 nM | ≤ 100 nM | ≤ 100 nM
8 | CCNS(=O)(=O)N1CCC(Nc2ncc(C(F)(F)F)c(-c3cnc(C)s3)n2)CC1 [Example 48, N-Ethyl-4-((4-(2-methylthiazol-5-yl)-5-(trifluoromethyl)pyrimidin-2-yl)amino)piperidine-1-sulfonamide] | > 1000 nM | 100 to 1000 nM | ≤ 100 nM
9 | Cc1ncc(-c2nc(NC3CCN(S(=O)(=O)CCO)CC3)ncc2C(F)(F)F)s1 [Example 61, 2-[4-[[4-(2-methyl-1,3-thiazol-5-yl)-5-(trifluoromethyl)pyrimidin-2-yl]amino]piperidin-1-yl]sulfonylethanol] | 100 to 1000 nM | ≤ 100 nM | ≤ 100 nM
10 | Cn1cc(S(=O)(=O)N2CC[C@H](Nc3ncc(C(F)(F)F)c(-c4cnc(CC(C)(C)O)s4)n3)[C@H](F)C2)cn1 [Example 73, 1-(5-(2-(((3R,4S)-3-fluoro-1-((1-methyl-1H-pyrazol-4-yl)sulfonyl)piperidin-4-yl)amino)-5-(trifluoromethyl)pyrimidin-4-yl)thiazol-2-yl)-2-methylpropan-2-ol] | ≤ 100 nM | ≤ 100 nM | ≤ 100 nM
11 | Cc1ncc(-c2nc(N[C@H]3CCN(S(=O)(=O)c4cnn(C)c4)C[C@H]3F)ncc2C(F)(F)F)s1 [Example 94, N-((3R,4S)-3-fluoro-1-((1-methyl-1H-pyrazol-4-yl)sulfonyl)piperidin-4-yl)-4-(2-methylthiazol-5-yl)-5-(trifluoromethyl)pyrimidin-2-amine] | ≤ 100 nM | ≤ 100 nM | ≤ 100 nM
12 | CC(C)(O)Cc1ncc(-c2nc(NC3CCN(S(=O)(=O)c4cnc5cccnn45)CC3)ncc2C(F)(F)F)s1 [Example 76, 1-(5-(2-((1-(imidazo[1,2-b]pyridazin-3-ylsulfonyl)piperidin-4-yl)amino)-5-(trifluoromethyl)pyrimidin-4-yl)thiazol-2-yl)-2-methylpropan-2-ol] | ≤ 100 nM | 100 to 1000 nM | ≤ 100 nM
13 | Cc1cc(C(C)(C)O)ccc1-c1ncc(-c2nc(NC3CCN(S(C)(=O)=O)CC3)ncc2C(F)(F)F)s1 [Example 8, 2-[3-Methyl-4-[5-[2-[(1-methylsulfonylpiperidin-4-yl)amino]-5-(trifluoromethyl)pyrimidin-4-yl]-1,3-thiazol-2-yl]phenyl]propan-2-ol] | > 1000 nM | 100 to 1000 nM | ≤ 100 nM
14 | CC(O)c1ncc(-c2nc(NC3CCN(S(=O)(=O)c4ccsc4)CC3)ncc2C(F)(F)F)s1 (stereo not drawn) [Example 85, 1-(5-(2-((1-(thiophen-3-ylsulfonyl)piperidin-4-yl)amino)-5-(trifluoromethyl)pyrimidin-4-yl)thiazol-2-yl)ethan-1-ol] | ≤ 100 nM | ≤ 100 nM | ≤ 100 nM
15 | CC(=O)N1CCC(S(=O)(=O)N2CCC(Nc3ncc(C(F)(F)F)c(-c4cnc(C(C)O)s4)n3)CC2)CC1 (stereo not drawn) [Example 88, 1-(4-((4-((4-(2-(1-hydroxyethyl)thiazol-5-yl)-5-(trifluoromethyl)pyrimidin-2-yl)amino)piperidin-1-yl)sulfonyl)piperidin-1-yl)ethan-1-one] | 100 to 1000 nM | ≤ 100 nM | ≤ 100 nM
16 | CN(c1ncc(-c2nc(NC3CCN(S(C)(=O)=O)CC3)ncc2C(F)(F)F)s1)C1CCCC1 [Example 33, N-cyclopentyl-N-methyl-5-(2-((1-(methylsulfonyl)piperidin-4-yl)amino)-5-(trifluoromethyl)pyrimidin-4-yl)thiazol-2-amine] | > 1000 nM | ≤ 100 nM | ≤ 100 nM
17 | Cc1ncc(-c2nc(NC3CCN(S(=O)(=O)N(C)C)CC3)ncc2C(F)(F)F)s1 [Example 47, N,N-Dimethyl-4-((4-(2-methylthiazol-5-yl)-5-(trifluoromethyl)pyrimidin-2-yl)amino)piperidine-1-sulfonamide] | > 1000 nM | 100 to 1000 nM | ≤ 100 nM
18 | COC(=O)N(C)Cc1ccc(-c2ncc(-c3nc(NC4CCN(S(C)(=O)=O)CC4)ncc3C(F)(F)F)s2)c(C)c1 [Example 14, methyl N-methyl-N-[[3-methyl-4-[5-[2-[(1-methylsulfonylpiperidin-4-yl)amino]-5-(trifluoromethyl)pyrimidin-4-yl]-1,3-thiazol-2-yl]phenyl]methyl]carbamate] | > 1000 nM | 100 to 1000 nM | ≤ 100 nM
19 | CS(=O)(=O)N1CCC(Nc2ncc(C(F)(F)F)c(-c3cnc(NCCO)s3)n2)CC1 [Example 31, 2-[[5-[2-[(1-methylsulfonylpiperidin-4-yl)amino]-5-(trifluoromethyl)pyrimidin-4-yl]-1,3-thiazol-2-yl]amino]ethanol] | 100 to 1000 nM | ≤ 100 nM | ≤ 100 nM
20 | Cc1ncc(-c2nc(N[C@@H]3CCN(S(=O)(=O)c4cnn(C)c4)C[C@H]3F)ncc2C(F)(F)F)s1 [Example 93, N-((3R,4R)-3-fluoro-1-((1-methyl-1H-pyrazol-4-yl)sulfonyl)piperidin-4-yl)-4-(2-methylthiazol-5-yl)-5-(trifluoromethyl)pyrimidin-2-amine] | 100 to 1000 nM | ≤ 100 nM | ≤ 100 nM
21 | CC(O)c1ncc(-c2nc(N[C@@H]3CCN(S(=O)(=O)c4cnn(C)c4)C[C@H]3F)ncc2C(F)(F)F)s1 (stereo partly drawn) [Example 99, 1-(5-(2-(((3R,4R)-3-fluoro-1-((1-methyl-1H-pyrazol-4-yl)sulfonyl)piperidin-4-yl)amino)-5-(trifluoromethyl)pyrimidin-4-yl)thiazol-2-yl)ethan-1-ol] | 100 to 1000 nM | ≤ 100 nM | ≤ 100 nM
22 | C[C@@H]1CN(S(=O)(=O)c2cn(C)cn2)CC[C@@H]1Nc1ncc(C(F)(F)F)c(-c2cnc(CC(C)(C)O)s2)n1 [Example 72, 2-methyl-1-(5-(2-(((3R,4S)-3-methyl-1-((1-methyl-1H-imidazol-4-yl)sulfonyl)piperidin-4-yl)amino)-5-(trifluoromethyl)pyrimidin-4-yl)thiazol-2-yl)propan-2-ol] | 100 to 1000 nM | 100 to 1000 nM | ≤ 100 nM
23 | CCS(=O)(=O)N1CCC(Nc2ncc(C(F)(F)F)c(-c3cnc(C)s3)n2)CC1 [Example 45, N-(1-(Ethylsulfonyl)piperidin-4-yl)-4-(2-methylthiazol-5-yl)-5-(trifluoromethyl)pyrimidin-2-amine] | 100 to 1000 nM | 100 to 1000 nM | ≤ 100 nM
